One series concerns LSK Flk2^− cells. In words: Ex vivo culture and expansion of sorted LSK Flk2- cells in media with PTEN and/or GSK-3β inhibitors. The settings on record: 1 μM CHIR99021, 200 nM BpV(pic); for expansion of LSK cells compared to control: 100 LSK Flk2- cells seeded, 17 and 23 days culture; for Fold expansion of LSK Flk2- cells after 28 days culture: compared to media without inhibitor. It counts as cell-based, wild-type (C57Bl/6) mice. The procedure:
LSK or LSK Flk2^− cells were sorted into 96-well U-bottom tissue culture plates at 100 cells/well with 200 μl media/well. Cells were incubated at 37° C., 5% O2, 5% CO2 (balance N2) for the indicated number of days. One-half total volume of media (see Table 1, below for the base media) was carefully pipetted from the top and replaced with fresh media every other day.
One hundred LSK Flk2^− cells were sorted from wild-type (C57Bl/6) mice and cultured in (1) media, (2) media+1 μM CHIR99021 (a GSK-3(3β inhibitor, a gift from Dr. Sheng Ding), (3) media+200 nM Dipotassium Bis-peroxo(picolinato)oxovanadate (BpV(pic), a PTEN inhibitor, available from Calbiochem, Cat. No. 203705), (4) media+1 μM CHIR99021+200 nM BpV(pic), (5) media+200 nM Shikonin (also a PTEN inhibitor, available from Calbiochem, Cat. No. 565850), and (6) media+200 nM Shikonin+1 μM CHIR99021. (FIGS. 3B-C). Cells were cultured as described above. Cells were examined at 17 days of culture (FIG. 3B, original magnification 100×) and 23 days (FIG. 3C, original magnification 40×).
LSK Flk2^− cells at 28 days culture in the indicated media conditions were examined (FIG. 3D, original magnification 200×).
Fold expansion of LSK Flk2^− cells after 28 days culture in (1) media, (2) media+BpV(pic), (3) media+CHIR99021, and (4) media+CHIR99021+BpV(pic) were analyzed.
One hundred LSK Flk2^− cells are sorted from wild-type (C57Bl/6) mice and are cultured in (1) media, (2) media+an GSK-3β antibody, (3) media+an anti-PTEN antibody, and (4) media+anti-GSK-3β and anti-PTEN antibodies. Cells are cultured as described above. Cells are examined at 9 days, 17 days and 23 days of culture.
One hundred LSK Flk2^− cells are sorted from wild-type (C57Bl/6) mice and are cultured in (1) media, (2) media+GSK-3β siRNA, (3) media+PTEN siRNA, and (4) media+GSK-3β siRNA and PTEN siRNA. Cells are cultured as described above. Cells are examined at 9 days, 17 days and 23 days of culture.

The test system of series [1] is lethally irradiated (10Gy) CD45.1^+ recipient mice. In words: Transplantation of cultured LSK Flk2- cells into lethally irradiated recipients; donor repopulation in peripheral blood. It counts as in vivo. The note with it: 28-day cultures; 1000 re-sorted LSK Flk2- cells (CD45.2+) + 2×10^5 competitor cells per mouse; peripheral blood at 4 weeks post-transplant.
Excerpt: Cells were harvested from the wells prior to transplantation by pipetting up and down several times before transferring to a fresh tube. Residual was then collected by adding more media and repeating. Cells were washed in DMEM (Invitrogen, Cat. No. 31053) without phenol red and added to the appropriate number of whole bone marrow rescue cells from a congenic donor (for 200,000 rescue cells+1,000 re-sorted LSK Flk2^− cells (FIG. 3F-H) or the non-adherent product of 10 days culture of 100 LSK Flk2^− cultured cells (FIG. 3I-K) per mouse as indicated). Cells were injected into lethally irradiated (10 Grays, single dose) Ptprc (CD45.1^+) recipient mice through the tail vein using an insulin syringe.
Repopulation was measured at 4 weeks post-transplant by collection of peripheral blood, red blood cell lysis, and staining of CD45.1 (recipient) compared to CD45.2 (donor) engraftment using antibodies purchased from eBiosciences (FITC conjugated CD45.2 (Cat. No. 11-0454-85) and PE-Cy5 conjugated CD45.1 (Cat. No. 15-0453-82)). Mice transplanted with rescue/competitor cells only were used as a control to determine the limits of repopulation detection. Multi-lineage reconstitution was determined by CD3, B220 (for lymphoid) and Gr1, Mac-1 (for myeloid), as described above.
Cells cultured for 28 days in (1) media, (2) media+BpV(pic), (3) media+CHIR99021 and (4) media+CHIR99021 (1 μM)+BpV(pic) (200 nM) were re-sorted for LSK Flk2^− cells. One thousand LSK Flk2^− cells (CD45.2^+) from each media condition were transplanted into lethally irradiated (10Gy) CD45.1^+ recipient mice along with 2×10^5 congenic whole bone marrow competitor cells. At 4 weeks post-transplant, peripheral blood was analyzed for donor (FIG. 3G) and multi-lineage (FIG. 3H) engraftment. […] The horizontal-dashed line represents the average ‘engraftment’ of mice transplanted with competitor cells only and, thus, the limit of detectability for true engraftment.
The test system is the same in series [2]. In words: Observation of transplant recipients for leukogenesis and health. The settings on record: recipients of LSK Flk2- cells cultured with inhibitor(s); up to 16 weeks post-transplantation.
For series [3] the test system is unchanged. The note with it: mouse, in vivo.

Like-named read-outs stand apart in the source and are kept apart here.

On to `Cc1c[nH]c(-c2cnc(NCCNc3ccc(C#N)cn3)nc2-c2ccc(Cl)cc2Cl)n1` [CHIR99021], for which, in the series with LSK Flk2^− cells, the “expansion of LSK cells compared to control” value is given as “greater expansion” and the “Fold expansion of LSK Flk2- cells after 28 days culture” value is “significant expansion”. Besides, in series [1], the “mice showing >1% engraftment” value was 4/8. In series [2], the “mice showing any sign of leukogenesis” value was “no mice”.
With “Dipotassium Bis-peroxo(picolinato)oxovanadate [BpV(pic)]”, in the series on LSK Flk2^− cells, the “expansion of LSK cells compared to control” value was “greater expansion” and the “Fold expansion of LSK Flk2- cells after 28 days culture” value was “significant expansion”. Moreover, in series [1], the “mice showing >1% engraftment” value is on record as 0/10. Further, the “mice showing any sign of leukogenesis” value in series [3] is reported as “no mice”.

(Values after patent US9771559B2, “Methods and compositions for stem cell self-renewal” (Stowers Institute for Medical Research, priority 2007, dated 2017).)
